Measured values reported in patent US20140171358A1, “ANTIMICROBIAL COMPOSITIONS COMPRISING DGLA AND NEOMYCIN SULFATE AND METHODS OF USE THEREOF” (Dignity Sciences Limited, priority 2012, published 2014).

Experiments:
Format in all cases: cell-based
K. pneumoniae = experiment: paper disc corrected zone of inhibition (CZOI) on Mueller Hinton agar
Experimental: (§1) The compounds tested in Example 1 were tested to determine their capacity to inhibit the growth of a variety of Gram-negative bacteria, Gram-positive bactgeria, fungi and yeast. In an exemplary method, Mueller Hinton agar plates were streaked with 500 μL of a 10^5 colony-forming units/mL culture and allowed to dry for at least one minute. A sterile paper disc (6 mm diameter) was then placed in the middle of each plate using sterile forceps. Twenty microliters of a solution of a known concentration of a test compound in filter-sterilized 95% ethanol were pipetted onto each test plate. Two streaked plates served as positive inhibitory controls and contained 6 mm sterile paper discs with standard tetracycline solutions. Two additional plates served as negative inhibition controls and each contained 6 mm sterile paper discs with 20 μL of filter-sterilized 95% ethanol. Two more plates served as positive growth controls and contained no paper disc or added antibacterial agent. The plates were incubated at 32.5±2° C. for 24±4 hours, after which the corrected zone of inhibition (“CZOI”) was determined as follows: For each plate, the length Y2 and width X2 of the test sample (paper disc) and length Y1 and width X1 of the clear zone were measured (FIG. 1). The CZOI was calculated from these values as shown by the equation below: [formula]

S. aureus = experiment: as above
Experimental: as §1

C. albicans = experiment: as above
Experimental: as §1

C. striatum = experiment: as above
Experimental: as §1

E. coli = experiment: as above
Experimental: as §1

A. brasiliensis = experiment: as above
Experimental: as §1

E. faecalis = experiment: as above
Experimental: as §1

S. epidermidis = experiment: as above
Experimental: as §1

P. aeroginosa = experiment: as above
Experimental: as §1

P. acnes = experiment: agar dilution method: growth index and MIC on P. acnes (single compounds and combinations); parameters: key to Growth Index Plate 1 / Growth Index Plate 2 / Growth Index Plate 3 / Growth Index Avg: +++: confluent growth (comparable to control); ++: less confluent growth; +: marked reduction in growth to multiple tiny, single colonies; −: no growth present
Experimental: Several compounds including fatty acids such as DGLA, 15-OHEPA, and 15-HETrE were tested to determine their capacity to inhibit the growth of P. acnes. In an exemplary method, an agar dilution method was used to determine the minimum inhibitory concentration (MIC) of each tested compound. Briefly, the agar dilution method involved preparing a series of concentrations of each compound (e.g., nicotinamide, benzoyl peroxide, adapalene, metronidazole, DGLA, 15-OHEPA, and 15-HETrE) in a Reinforced Clostridial Agar (RCA) media that facilitates growth of P. acnes under anaerobic conditions. An inoculum of P. acnes was prepared by incubation of P. acnes for approximately seven days at 35-37° C. to achieve a ≧1.0 OD600 inoculum of P. acnes in RCM broth. A portion of this inoculum was then added to the surface of each plate as a 10 μL spot and incubated at 35-37° C. for 72 hours or more. Growth of P. acnes was then observed and compared to control plates in which no compound has been added, and positive inhibition plates prepared with erythromycin. […] The growth of P. acnes in the presence of nicotinamide, benzoyl peroxide, adapalene, metronidazole, DGLA, 15-OHEPA, and 15-HETrE was determined with varying concentrations of the compound (see, Table 2). Next, the MIC was determined as the concentration at which a marked reduction (+) occurs in the appearance of growth on the test plate (as per Clinical and Laboratory Standards Institute M11-A7). The compounds tested singly in Example 1 were tested in combination with one another to determine the capacity of the combination to inhibit the growth of P. acnes. In an exemplary method, the MIC was determined for each of the combination as described in Example 1. Briefly, test combinations included DGLA with nicotinamide, benzoyl peroxide, adapalene, or metronidazole; 15-HETrE with nicotinamide, benzoyl peroxide, adapalene, or metronidazole; and 15-OHEPA with nicotinamide, benzoyl peroxide, adapalene, or metronidazole. The tables below show the growth of P. acnes in the presence of 0.4 or 1.0 mg/mL DGLA with varying concentrations of nicotinamide, benzoyl peroxide, adapalene, or metronidazole (Table 3); the growth of P. acnes in the presence of 0.01 or 0.05 mg/mL 15-HETrE with varying concentrations of nicotinamide, benzoyl peroxide, adapalene, or metronidazole (Table 5); and the growth of P. acnes in the presence of 0.5 or 0.1 mg/mL 15-OHEPA with varying concentrations of nicotinamide, benzoyl peroxide, adapalene, or metronidazole (Table 7).

Compound: CCCCCC(O)/C=C/C=C\C/C=C\CCCCCCC(=O)O (stereo not drawn) [15-HETrE, 15-Hydroxy-eicosa-8(Z),11(Z),13 (E)-trienoic acid]
- Average CZOI (K. pneumoniae; 0.005 mg/mL): 2.5 mm
- Average CZOI (K. pneumoniae; 0.01 mg/mL): 2 mm
- Average CZOI (K. pneumoniae; 0.05 mg/mL): 1 mm
- Average CZOI (K. pneumoniae; 0.1 mg/mL): 1.5 mm
- Average CZOI (K. pneumoniae; 0.5 mg/mL): 1 mm
- Lowest Concentration With Observed Inhibition (K. pneumoniae; K. pneumoniae): 0.005 mg/mL
- Most Effective Concentration Observed (K. pneumoniae; K. pneumoniae): 0.005 mg/mL
- Average CZOI (S. aureus; 0.005 mg/mL): 2 mm
- Average CZOI (S. aureus; 0.01 mg/mL): 2.5 mm
- Average CZOI (S. aureus; 0.05 mg/mL): 0.75 mm
- Average CZOI (S. aureus; 0.1 mg/mL): 1.75 mm
- Average CZOI (S. aureus; 0.5 mg/mL): 1 mm
- Lowest Concentration With Observed Inhibition (S. aureus; S. aureus): 0.005 mg/mL
- Most Effective Concentration Observed (S. aureus; S. aureus): 0.01 mg/mL
- Average CZOI (C. albicans; 0.005 mg/mL): 2 mm
- Average CZOI (C. albicans; 0.01 mg/mL): 1.75 mm
- Average CZOI (C. albicans; 0.05 mg/mL): 1.25 mm
- Average CZOI (C. albicans; 0.1 mg/mL): 1.5 mm
- Average CZOI (C. albicans; 0.5 mg/mL): 1.25 mm
- Lowest Concentration With Observed Inhibition (C. albicans; C. albicans): 0.005 mg/mL
- Most Effective Concentration Observed (C. albicans; C. albicans): 0.005 mg/mL
- Average CZOI (C. striatum; 0.005 mg/mL): 4 mm
- Average CZOI (C. striatum; 0.01 mg/mL): 3.25 mm
- Average CZOI (C. striatum; 0.05 mg/mL): 2.25 mm
- Average CZOI (C. striatum; 0.1 mg/mL): 3.25 mm
- Average CZOI (C. striatum; 0.5 mg/mL): 1.5 mm
- Lowest Concentration With Observed Inhibition (C. striatum; C. striatum): 0.005 mg/mL
- Most Effective Concentration Observed (C. striatum; C. striatum): 0.05 mg/mL
- Average CZOI (E. coli; 0.005 mg/mL): 1.5 mm
- Average CZOI (E. coli; 0.01 mg/mL): 2 mm
- Average CZOI (E. coli; 0.05 mg/mL): 1 mm
- Average CZOI (E. coli; 0.1 mg/mL): 1.25 mm
- Average CZOI (E. coli; 0.5 mg/mL): 1 mm
- Lowest Concentration With Observed Inhibition (E. coli; E. coli): 0.005 mg/mL
- Most Effective Concentration Observed (E. coli; E. coli): 0.01 mg/mL
- Average CZOI (A. brasiliensis; 0.005 mg/mL): 1.75 mm
- Average CZOI (A. brasiliensis; 0.01 mg/mL): 1 mm
- Average CZOI (A. brasiliensis; 0.05 mg/mL): 1.25 mm
- Average CZOI (A. brasiliensis; 0.1 mg/mL): 2.25 mm
- Average CZOI (A. brasiliensis; 0.5 mg/mL): 3 mm
- Lowest Concentration With Observed Inhibition (A. brasiliensis; A. brasiliensis): 0.005 mg/mL
- Most Effective Concentration Observed (A. brasiliensis; A. brasiliensis): 0.5 mg/mL
- Average CZOI (E. faecalis; 0.005 mg/mL): 3.75 mm
- Average CZOI (E. faecalis; 0.01 mg/mL): 5.75 mm
- Average CZOI (E. faecalis; 0.05 mg/mL): 3.75 mm
- Average CZOI (E. faecalis; 0.1 mg/mL): 3.25 mm
- Average CZOI (E. faecalis; 0.5 mg/mL): 2.75 mm
- Lowest Concentration With Observed Inhibition (E. faecalis; E. faecalis): 0.005 mg/mL
- Most Effective Concentration Observed (E. faecalis; E. faecalis): 0.01 mg/mL
- Average CZOI (S. epidermidis; 0.005 mg/mL): 1.75 mm
- Average CZOI (S. epidermidis; 0.01 mg/mL): 3 mm
- Average CZOI (S. epidermidis; 0.05 mg/mL): 1 mm
- Average CZOI (S. epidermidis; 0.1 mg/mL): 1 mm
- Average CZOI (S. epidermidis; 0.5 mg/mL): 1.75 mm
- Lowest Concentration With Observed Inhibition (S. epidermidis; S. epidermidis): 0.005 mg/mL
- Most Effective Concentration Observed (S. epidermidis; S. epidermidis): 0.01 mg/mL
- Average CZOI (P. aeroginosa; 0.005 mg/mL): 1.5 mm
- Average CZOI (P. aeroginosa; 0.01 mg/mL): 1.5 mm
- Average CZOI (P. aeroginosa; 0.05 mg/mL): 1 mm
- Average CZOI (P. aeroginosa; 0.1 mg/mL): 1.5 mm
- Average CZOI (P. aeroginosa; 0.5 mg/mL): 1 mm
- Lowest Concentration With Observed Inhibition (P. aeroginosa; P. aeroginosa): 0.005 mg/mL
- Most Effective Concentration Observed (P. aeroginosa; P. aeroginosa): 0.005 mg/mL
- effect on growth of P. acnes on its own (P. acnes; 0.01 mg/ml): no effect on its own
- Growth Index Avg (P. acnes; varied compound 0.00001 mg/mL): +++
- Growth Index Plate 1 (P. acnes; varied compound 0.00001 mg/mL): +++
- Growth Index Plate 2 (P. acnes; varied compound 0.00001 mg/mL): +++
- Growth Index Plate 3 (P. acnes; varied compound 0.00001 mg/mL): +++
- Growth Index Avg (P. acnes; varied compound 0.0001 mg/mL): +++
- Growth Index Plate 1 (P. acnes; varied compound 0.0001 mg/mL): +++
- Growth Index Plate 2 (P. acnes; varied compound 0.0001 mg/mL): +++
- Growth Index Plate 3 (P. acnes; varied compound 0.0001 mg/mL): +++
- Growth Index Avg (P. acnes; varied compound 0.001 mg/mL): +++
- Growth Index Plate 1 (P. acnes; varied compound 0.001 mg/mL): +++
- Growth Index Plate 2 (P. acnes; varied compound 0.001 mg/mL): +++
- Growth Index Plate 3 (P. acnes; varied compound 0.001 mg/mL): +++
- Growth Index Avg (P. acnes; varied compound 0.01 mg/mL): ++
- Growth Index Plate 1 (P. acnes; varied compound 0.01 mg/mL): ++
- Growth Index Plate 2 (P. acnes; varied compound 0.01 mg/mL): +++
- Growth Index Plate 3 (P. acnes; varied compound 0.01 mg/mL): ++
- Growth Index Avg (P. acnes; varied compound 0.05 mg/mL): −
- Growth Index Plate 1 (P. acnes; varied compound 0.05 mg/mL): −
- Growth Index Plate 2 (P. acnes; varied compound 0.05 mg/mL): −
- Growth Index Plate 3 (P. acnes; varied compound 0.05 mg/mL): −
